Patent US20240217947A1, “Morpholinylquinazoline Compound, Pharmaceutical compositions thereof and Use Thereof” (SHANGHAI YINGLI PHARMACEUTICAL CO., LTD, priority 2022, published 2024)
pIC50: −log10 of the molar value.

Columns and labels:
Format in all cases: biochemical
[1] = molecular target: T1, HDAC6 (Homo sapiens, UniProt Q9UBN7); assay: HDAC6 enzyme activity inhibition IC50 evaluation experiment; settings: HDAC6 5 nM, acetylated peptide 11 μM, trypsin, fluorescence
T1 sequence (Q9UBN7 1-1215): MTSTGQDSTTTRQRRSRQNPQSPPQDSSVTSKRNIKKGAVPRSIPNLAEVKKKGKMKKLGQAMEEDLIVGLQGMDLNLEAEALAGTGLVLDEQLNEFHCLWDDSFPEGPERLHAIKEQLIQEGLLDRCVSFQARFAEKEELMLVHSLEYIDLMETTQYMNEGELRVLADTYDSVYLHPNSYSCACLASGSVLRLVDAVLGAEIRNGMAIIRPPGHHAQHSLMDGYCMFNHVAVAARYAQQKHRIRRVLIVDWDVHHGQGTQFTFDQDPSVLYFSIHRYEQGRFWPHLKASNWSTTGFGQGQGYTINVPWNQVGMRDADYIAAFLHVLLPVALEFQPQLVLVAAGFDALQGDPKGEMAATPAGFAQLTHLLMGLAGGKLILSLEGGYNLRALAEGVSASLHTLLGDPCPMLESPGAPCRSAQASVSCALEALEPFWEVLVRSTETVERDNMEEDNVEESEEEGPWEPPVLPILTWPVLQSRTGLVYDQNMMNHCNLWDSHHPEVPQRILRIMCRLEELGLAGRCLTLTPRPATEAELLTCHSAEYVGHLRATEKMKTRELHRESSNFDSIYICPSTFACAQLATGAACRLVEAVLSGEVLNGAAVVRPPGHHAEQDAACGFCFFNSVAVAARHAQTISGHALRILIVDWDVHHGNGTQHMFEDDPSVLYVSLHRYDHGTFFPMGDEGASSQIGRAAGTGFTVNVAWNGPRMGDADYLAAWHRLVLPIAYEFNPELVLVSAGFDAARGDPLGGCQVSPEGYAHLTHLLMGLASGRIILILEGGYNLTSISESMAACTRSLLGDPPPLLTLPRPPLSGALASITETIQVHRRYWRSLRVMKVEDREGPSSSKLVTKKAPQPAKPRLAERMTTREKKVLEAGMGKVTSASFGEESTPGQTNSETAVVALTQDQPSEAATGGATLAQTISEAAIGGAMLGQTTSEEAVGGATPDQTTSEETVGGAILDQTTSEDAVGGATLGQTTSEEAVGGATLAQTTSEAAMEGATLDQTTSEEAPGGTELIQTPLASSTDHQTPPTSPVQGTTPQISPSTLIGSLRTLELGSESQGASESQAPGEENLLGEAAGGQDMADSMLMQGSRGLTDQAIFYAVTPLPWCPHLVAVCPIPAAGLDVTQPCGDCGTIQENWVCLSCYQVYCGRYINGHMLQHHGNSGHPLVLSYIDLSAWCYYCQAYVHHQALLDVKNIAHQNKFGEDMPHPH
Method: Effect Example 2 HDAC1, HDAC2, HDAC3, HDAC6 enzyme activity inhibition IC50 evaluation experiment
Buffer solution (50 mM Tris 7.5, 0.01% Tween-20, 50 mM NaCl) was prepared according to the kit instructions, and the enzyme solution and substrate solution (acetylated peptide with the addition of trypsin) were prepared using the buffer solution. The test compound samples were dissolved with DMSO and added to the screening system at a certain starting concentration such as 10 μM, 3-fold dilution, while setting up a DMSO control and no-enzyme control. The enzyme reaction system includes: buffer, enzyme [final concentration: HDAC1=10 nM, HDAC2=4 nM, HDAC3=7 nM, HDAC6=5 nM], substrate (acetylated peptide) [final concentration: Peptide(HDAC1)=8 μM, Peptide(HDAC2)=10 μM, Peptide(HDAC3)=5 μM, Peptide(HDAC6)=11 μM], trypsin [final concentration: Trypsin(HDAC1,2,3)=0.05 μM, Trypsin(HDAC6)=0.1 μM], etc. The enzymes and compounds were reacted at room temperature for 15 min. After adding the substrate and Trypsin, centrifugation was performed for 1 min, and the fluorescence signal data (excitation wavelength 355 nM/emission wavelength 460 nm) was read continuously for 60 min using Envision, and the linear reaction segment was selected to obtain the slope and thus calculate the inhibition rate at that concentration. The IC50 value was obtained by fitting the curve using the formula Y=Bottom+(Top-Bottom)/(1+(IC50/X)^HillSlope).

[2] = molecular target: PI3Kδ (Homo sapiens, UniProt O00329); assay: PI3Kδ enzyme activity inhibition IC50 evaluation assay (ADP-Glo Kinase Assay); settings: ATP 25 μM, PIP2 50 μg/mL, 1 hour room temperature, read-out: PI3K-δ IC50
Method: (§1) Effec Example 1 IC50 evaluation assay for PI3Kα, PI3Kδ, PI3Kβ and PI3Kγ enzyme activity inhibition
(§2) The experiment was performed using the ADP-Glo Kinase Assay kit, following the instructions. The following buffer solutions were prepared: 50 mM HEPES, pH 7.5, 3 mM MgCl2, 1 mM EGTA, 100 mM NaCl, 0.03% CHAPS, 2 mM DTT. The test compound samples were dissolved in DMSO and added to the screening system at a certain starting concentration such as 10 μM, 3-fold dilution, while setting up both DMSO control and no kinase control. The optimal concentrations of PI3Kα, PI3Kδ, PI3Kβ and PI3Kγ enzymes, substrate (PIP2) and ATP were prepared in buffer. The enzyme reaction system included: buffer, ATP 25 μM, kinase substrate (PIP2, 50 μg/mL), kinases [PI3Kα (0.15 μg/mL), PI3Kδ (1.2 μg/mL), PI3Kβ (0.3 μg/mL) and PI3Kγ (2.5 μg/mL)], etc. The reaction system was reacted at room temperature for 1 hour. The reaction was terminated by adding a termination reagent (ADP-Glo reagent, 5 μL), and the ADP content in the system was detected using a detection reagent (Kinase Detection Reagent, 10 μL). Signal data were collected using the Envision instrument. Calculate the percentage of (%) inhibition according to the following formula: % inhibition=(DMSO control signal value−sample signal value)/(DMSO control signal value−no-kinase control signal value). The IC50 value was obtained by fitting the curve using the formula Y=Bottom+(Top-Bottom)/(1+(IC50/X)^HillSlope).

[3] = molecular target: PI3Kα (Homo sapiens, UniProt P42336); assay: PI3Kα enzyme activity inhibition IC50 evaluation assay (ADP-Glo Kinase Assay); settings: ATP 25 μM, PIP2 50 μg/mL, 1 hour room temperature, read-out: PI3K-α IC50
Method: as §1, §2

Sequence of PI3Kα (P42336 whole entry, species assumed): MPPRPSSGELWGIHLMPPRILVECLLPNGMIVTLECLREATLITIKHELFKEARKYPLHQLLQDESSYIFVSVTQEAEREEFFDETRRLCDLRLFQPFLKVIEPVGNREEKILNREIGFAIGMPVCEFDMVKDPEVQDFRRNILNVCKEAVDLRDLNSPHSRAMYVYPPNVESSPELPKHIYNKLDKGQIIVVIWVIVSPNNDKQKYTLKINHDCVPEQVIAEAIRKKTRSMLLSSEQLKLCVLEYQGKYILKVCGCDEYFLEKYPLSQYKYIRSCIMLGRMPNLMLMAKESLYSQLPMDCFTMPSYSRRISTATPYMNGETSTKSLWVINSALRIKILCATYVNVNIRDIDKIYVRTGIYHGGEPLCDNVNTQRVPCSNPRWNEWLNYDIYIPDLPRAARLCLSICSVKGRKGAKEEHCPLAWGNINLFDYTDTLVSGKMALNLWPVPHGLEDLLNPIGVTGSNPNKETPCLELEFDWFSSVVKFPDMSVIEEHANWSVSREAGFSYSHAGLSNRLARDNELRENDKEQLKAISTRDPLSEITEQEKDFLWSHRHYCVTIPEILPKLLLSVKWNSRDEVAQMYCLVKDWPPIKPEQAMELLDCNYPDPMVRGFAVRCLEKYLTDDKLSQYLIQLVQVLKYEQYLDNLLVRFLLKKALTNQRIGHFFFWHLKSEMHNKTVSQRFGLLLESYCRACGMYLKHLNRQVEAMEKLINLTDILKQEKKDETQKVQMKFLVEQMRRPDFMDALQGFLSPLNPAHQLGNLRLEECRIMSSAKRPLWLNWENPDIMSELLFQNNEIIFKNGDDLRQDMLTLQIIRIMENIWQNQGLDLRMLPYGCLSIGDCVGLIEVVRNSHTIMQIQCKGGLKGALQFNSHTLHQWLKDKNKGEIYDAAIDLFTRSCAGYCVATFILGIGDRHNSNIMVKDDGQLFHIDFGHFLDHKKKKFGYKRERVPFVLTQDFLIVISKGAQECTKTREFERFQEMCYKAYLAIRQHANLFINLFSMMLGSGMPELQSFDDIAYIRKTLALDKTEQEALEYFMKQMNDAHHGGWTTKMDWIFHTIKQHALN
Sequence of PI3Kα (P27986 whole entry partner, species assumed): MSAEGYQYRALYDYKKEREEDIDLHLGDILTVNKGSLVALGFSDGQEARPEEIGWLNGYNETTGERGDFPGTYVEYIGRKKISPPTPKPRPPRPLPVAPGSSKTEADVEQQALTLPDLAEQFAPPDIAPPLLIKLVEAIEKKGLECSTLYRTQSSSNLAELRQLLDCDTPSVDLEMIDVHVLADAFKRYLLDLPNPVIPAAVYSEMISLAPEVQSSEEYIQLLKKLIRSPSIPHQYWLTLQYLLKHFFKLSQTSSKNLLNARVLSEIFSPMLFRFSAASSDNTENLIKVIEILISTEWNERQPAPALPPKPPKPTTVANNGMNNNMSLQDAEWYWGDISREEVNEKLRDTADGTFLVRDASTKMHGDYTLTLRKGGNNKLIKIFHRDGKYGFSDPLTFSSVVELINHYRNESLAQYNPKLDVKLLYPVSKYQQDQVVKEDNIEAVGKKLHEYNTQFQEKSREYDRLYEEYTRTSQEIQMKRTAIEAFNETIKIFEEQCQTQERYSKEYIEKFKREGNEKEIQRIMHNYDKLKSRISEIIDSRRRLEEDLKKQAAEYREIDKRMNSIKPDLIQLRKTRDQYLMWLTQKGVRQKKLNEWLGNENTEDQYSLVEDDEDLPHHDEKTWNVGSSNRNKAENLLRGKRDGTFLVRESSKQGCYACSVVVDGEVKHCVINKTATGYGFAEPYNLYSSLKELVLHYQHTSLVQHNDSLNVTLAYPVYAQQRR
Sequence of PI3Kδ (O00329 whole entry, species assumed): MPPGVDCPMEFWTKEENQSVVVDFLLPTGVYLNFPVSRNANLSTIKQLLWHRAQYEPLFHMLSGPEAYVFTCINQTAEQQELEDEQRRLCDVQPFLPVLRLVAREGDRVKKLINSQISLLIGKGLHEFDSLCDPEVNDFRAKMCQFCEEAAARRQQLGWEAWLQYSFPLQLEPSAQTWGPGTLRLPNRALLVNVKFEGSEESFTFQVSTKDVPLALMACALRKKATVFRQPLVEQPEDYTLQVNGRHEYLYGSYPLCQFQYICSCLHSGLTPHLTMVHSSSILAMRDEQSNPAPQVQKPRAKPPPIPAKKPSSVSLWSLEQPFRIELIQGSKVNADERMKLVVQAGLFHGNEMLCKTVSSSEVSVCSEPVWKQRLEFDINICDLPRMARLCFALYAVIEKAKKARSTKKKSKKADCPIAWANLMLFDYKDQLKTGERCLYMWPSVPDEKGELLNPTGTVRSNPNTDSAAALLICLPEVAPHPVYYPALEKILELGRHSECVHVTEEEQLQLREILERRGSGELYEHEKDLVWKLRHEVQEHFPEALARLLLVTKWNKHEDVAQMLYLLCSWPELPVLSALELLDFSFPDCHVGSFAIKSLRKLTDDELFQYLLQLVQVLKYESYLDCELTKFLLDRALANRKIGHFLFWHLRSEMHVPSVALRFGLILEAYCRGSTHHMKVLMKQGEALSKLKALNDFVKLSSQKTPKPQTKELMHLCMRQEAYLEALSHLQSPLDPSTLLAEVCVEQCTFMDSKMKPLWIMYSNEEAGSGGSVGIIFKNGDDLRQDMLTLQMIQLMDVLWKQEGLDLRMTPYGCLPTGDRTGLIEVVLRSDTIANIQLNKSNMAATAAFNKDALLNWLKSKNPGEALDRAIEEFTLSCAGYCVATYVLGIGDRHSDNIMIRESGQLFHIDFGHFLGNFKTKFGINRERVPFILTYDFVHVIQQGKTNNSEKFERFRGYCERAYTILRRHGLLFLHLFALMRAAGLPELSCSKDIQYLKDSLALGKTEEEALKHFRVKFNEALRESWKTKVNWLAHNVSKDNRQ
Sequence of PI3Kδ (P27986 whole entry partner, species assumed): as the sequence (P27986 whole entry partner, species assumed) above

SMILES	pIC50 [1]	pIC50 [2]	pIC50 [3]
COc1ncc(-c2nc(N3CCOCC3)nc3c(OC4CCN(Cc5ccc(C(=O)NO)cc5F)CC4)cc(F)cc23)cc1NS(C)(=O)=O [Compound 33]	7.00 to 8.00	7.00 to 8.00	
COc1ncc(-c2nc(N3CCOCC3)nc3c(OCCCCCC(=O)NO)cc(F)cc23)cc1NS(C)(=O)=O [Compound 8]	≥ 8.00	7.00 to 8.00	6.00 to 7.00
COc1ncc(-c2nc(N3CCOCC3)nc3c(CN4CCC(c5ccc(C(=O)NO)cc5)CC4)cc(F)cc23)cc1NS(C)(=O)=O [Compound 23]	7.00 to 8.00	≥ 8.00	6.00 to 7.00
COc1ncc(-c2nc(N3CCOCC3)nc3c(CN4CCC(CCCC(=O)NO)CC4)cc(F)cc23)cc1NS(=O)(=O)C(F)(F)F [Compound 26]	7.00 to 8.00	≥ 8.00	6.00 to 7.00
COc1ncc(-c2nc(N3CCOCC3)nc3c(CN4CCC(c5c(F)cc(C(=O)NO)cc5F)CC4)cc(F)cc23)cc1NS(C)(=O)=O [Compound 19]	6.00 to 7.00	≥ 8.00	5.00 to 6.00
COc1ncc(-c2nc(N3CCOCC3)nc3c(CN4CCC(N5CCC(C(=O)NO)CC5)CC4)cc(F)cc23)cc1NS(C)(=O)=O [Compound 14]	5.00 to 6.00	7.00 to 8.00	5.00 to 6.00
O=C(CCCC1CCN(Cc2cc(F)cc3c(-c4cncc(NS(=O)(=O)C5CC5)c4)nc(N4CCOCC4)nc23)CC1)NO [Compound 27]		7.00 to 8.00	5.00 to 6.00
COc1ncc(-c2nc(N3CCOCC3)nc3c(CN4CCC(/C=C/C(=O)NO)CC4)cc(F)cc23)cc1NS(C)(=O)=O [Compound 5]	6.00 to 7.00	≥ 8.00	
COc1ncc(-c2nc(N3CCOCC3)nc3c(CN4CCN(Cc5ccc(C(=O)NO)cc5)CC4)cc(F)cc23)cc1NS(C)(=O)=O [Compound 10]	7.00 to 8.00	≥ 8.00	6.00 to 7.00
COc1ncc(-c2nc(N3CCOCC3)nc3c(OCCc4ccc(C(=O)NO)cc4F)cc(F)cc23)cc1NS(C)(=O)=O [Compound 37]		6.00 to 7.00	
COc1ncc(-c2nc(N3CCOCC3)nc3c(CN4CCC(c5ccc(C(=O)NO)cc5F)CC4)cc(F)cc23)cc1NS(C)(=O)=O [Compound 17]	7.00 to 8.00	≥ 8.00	5.00 to 6.00
COc1ncc(-c2nc(N3CCOCC3)nc3c(CN4CCN(CCCCC(=O)NO)CC4)cc(F)cc23)cc1NS(C)(=O)=O [Compound 6]	6.00 to 7.00	≥ 8.00	
COc1ncc(-c2nc(N3CCOCC3)nc3c(CN4CC(OCCOCC(=O)NO)C4)cc(F)cc23)cc1NS(C)(=O)=O [Compound 16]	5.00 to 6.00	7.00 to 8.00	6.00 to 7.00
CS(=O)(=O)Nc1cncc(-c2nc(N3CCOCC3)nc3c(CN4CCC(CCCC(=O)NO)CC4)cc(F)cc23)c1 [Compound 24]	7.00 to 8.00	7.00 to 8.00	5.00 to 6.00
COc1ncc(-c2nc(N3CCOCC3)nc3c(OCc4ccc(C(=O)NO)cc4F)cc(F)cc23)cc1NS(C)(=O)=O [Compound 38]		7.00 to 8.00	
COc1ncc(-c2nc(N3CCOCC3)nc3c(CN4CCC(c5cc(F)c(C(=O)NO)cc5F)CC4)cc(F)cc23)cc1NS(C)(=O)=O [Compound 20]	6.00 to 7.00	≥ 8.00	5.00 to 6.00
COc1ncc(-c2nc(N3CCOCC3)nc3c(CN4CCC(C(=O)NO)CC4)cc(F)cc23)cc1NS(C)(=O)=O [Compound 1]	5.00 to 6.00	7.00 to 8.00	5.00 to 6.00
COc1ncc(-c2nc(N3CCOCC3)nc3c(CN4CCC(c5ccc(C(=O)NO)cc5F)CC4)cc(F)cc23)cc1NS(=O)(=O)C(F)(F)F [Compound 29]		≥ 8.00	6.00 to 7.00
COc1ncc(-c2nc(N3CCOCC3)nc3c(OC4CCN(c5ccc(C(=O)NO)cc5F)CC4)cc(F)cc23)cc1NS(C)(=O)=O [Compound 31]	7.00 to 8.00	7.00 to 8.00	
COc1ncc(-c2nc(N3CCOCC3)nc3c(CN4CCC(C(C)(C)OCC(=O)NO)CC4)cc(F)cc23)cc1NS(C)(=O)=O [Compound 22]	5.00 to 6.00	≥ 8.00	6.00 to 7.00
COc1ncc(-c2nc(N3CCOCC3)nc3c(CN4CCC(CCCCC(=O)NO)CC4)cc(F)cc23)cc1NS(C)(=O)=O [Compound 15]	6.00 to 7.00	≥ 8.00	6.00 to 7.00
COc1ncc(-c2nc(N3CCOCC3)nc3c(CN4CCC(OCCC(=O)NO)CC4)cc(F)cc23)cc1NS(C)(=O)=O [Compound 11]	6.00 to 7.00	≥ 8.00	5.00 to 6.00
COc1ncc(-c2nc(N3CCOCC3)nc3c(CN4CCN(c5ccc(C(=O)NO)cc5F)CC4)cc(F)cc23)cc1NS(C)(=O)=O [Compound 34]	7.00 to 8.00	7.00 to 8.00	
COc1ncc(-c2nc(N3CCOCC3)nc3c(O[C@H]4CC[C@H](N5CCC(C(=O)NO)CC5)CC4)cc(F)cc23)cc1NS(C)(=O)=O [Compound 32]	5.00 to 6.00	≥ 8.00	
COc1ncc(-c2nc(N3CCOCC3)nc3c(CN4CCC(CCNC(=O)NO)CC4)cc(F)cc23)cc1NS(C)(=O)=O [Compound 28]	< 5.00	≥ 8.00	6.00 to 7.00
COc1ncc(-c2nc(N3CCOCC3)nc3c(CN4CCC(OCCCC(=O)NO)CC4)cc(F)cc23)cc1NS(C)(=O)=O [Compound 13]	6.00 to 7.00	≥ 8.00	5.00 to 6.00
COc1ncc(-c2nc(N3CCOCC3)nc3c(CN4CCC(CCCC(=O)NO)CC4)cc(F)cc23)cc1NS(=O)(=O)C1CC1 [Compound 25]	7.00 to 8.00	7.00 to 8.00	5.00 to 6.00
COc1ncc(-c2nc(N3CCOCC3)nc3c(CN4CCN(Cc5ncc(C(=O)NO)cn5)CC4)cc(F)cc23)cc1NS(C)(=O)=O [Compound 12]	6.00 to 7.00	≥ 8.00	6.00 to 7.00
COc1ncc(-c2nc(N3CCOCC3)nc3c(CN4CCC(c5ccc(C(=O)NO)c(F)c5)CC4)cc(F)cc23)cc1NS(C)(=O)=O [Compound 18]	6.00 to 7.00	≥ 8.00	5.00 to 6.00
